Experimental data from ChEMBL document CHEMBL3132779, “Design, synthesis and biological evaluation of imidazo[1,5-a]pyridinePBD conjugates as potential DNA-directed alkylating agents” (Medchemcomm, 2013).
Active and inactive are the calls of the source. The rule behind the calls is not given here.

Assays:
MCF7 [1] = assay: Cytotoxicity against human MCF7 cells assessed as reduction cell viability after 24 hrs by MTT assay; type: functional, cell-based; conditions: MCF7, 24 h
MCF7 [2] = assay: Cell cycle arrest in human MCF7 cells assessed as accumulation at S phase at 2 uM after 24 hrs by propidium iodide staining-based flow cytometric analysis (reference value: 12.23%); type: functional
MCF7 [3] = assay: Cell cycle arrest in human MCF7 cells assessed as accumulation at S phase at 4 uM after 24 hrs by propidium iodide staining-based flow cytometric analysis (reference value: 12.23%); type: functional
MCF7 [4] = assay: Cell cycle arrest in human MCF7 cells assessed as accumulation at G1 phase at 4 uM after 24 hrs by propidium iodide staining-based flow cytometric analysis (reference value: 56.48%); type: functional
DNA = assay: Binding affinity to calf thymus DNA assessed as change in melting temperature at 1:5 drug/DNA ratio at 37 degC after 18 hrs by spectrophotometry; type: nucleic-acid assay; conditions: Bos taurus
MCF7 [5] = assay: Cell cycle arrest in human MCF7 cells assessed as accumulation at G0 phase at 4 uM after 24 hrs by propidium iodide staining-based flow cytometric analysis (reference value: 3.36%); type: functional
MCF7 [6] = assay: Cell cycle arrest in human MCF7 cells assessed as accumulation at G1 phase at 2 uM after 24 hrs by propidium iodide staining-based flow cytometric analysis (reference value: 56.48%); type: functional
MCF7 [7] = assay: Cell cycle arrest in human MCF7 cells assessed as accumulation at G2/M phase at 2 uM after 24 hrs by propidium iodide staining-based flow cytometric analysis (reference value: 27.93%); type: functional
MCF7 [8] = assay: Cell cycle arrest in human MCF7 cells assessed as accumulation at G0 phase at 2 uM after 24 hrs by propidium iodide staining-based flow cytometric analysis (reference value: 3.36%); type: functional
MCF7 [9] = assay: Cell cycle arrest in human MCF7 cells assessed as accumulation at G2/M phase at 4 uM after 24 hrs by propidium iodide staining-based flow cytometric analysis (reference value: 27.93%); type: functional
MCF7 [10] = assay: Induction of apoptosis in human MCF7 cells assessed as increase in P53 tumor suppressor protein expression at 4 uM after 24 hrs by ELISA; type: functional, cell-based
MCF7 [11] = assay: Induction of apoptosis in human MCF7 cells assessed as decrease in PARP protein expression at 4 uM after 24 hrs by Western blot analysis; type: functional, cell-based
MCF7 [12] = assay: Induction of apoptosis in human MCF7 cells assessed as decrease in cyclin D1 expression at 4 uM after 24 hrs by Western blot analysis; type: functional, cell-based
MCF7 [13] = assay: Induction of DNA in human MCF7 cells assessed as increase in phosphorylated gamma-H2AX foci formation measured by immunoflourosence microscopy relative to control; type: functional
MCF7 [14] = assay: Induction of apoptosis in human MCF7 cells assessed as increase in P21 tumor suppressor protein expression at 4 uM after 24 hrs by Western blot analysis; type: functional, cell-based
MCF7 [15] = assay: Induction of apoptosis in human MCF7 cells assessed as increase in active caspase 9 at 4 uM after 24 hrs by Western blot analysis; type: functional, cell-based
MCF7 [16] = assay: Induction of apoptosis in human MCF7 cells assessed as increase in P53 tumor suppressor protein expression at 4 uM after 24 hrs by Western blot analysis; type: functional, cell-based

COc1cc2c(cc1OCCCN1CCN(C(=O)c3nc(-c4ccc(C(F)(F)F)cc4)n4ccccc34)CC1)N=C[C@@H]1CCCN1C2=O
IC50 (MCF7 [1]): 5.74 µM | Activity (MCF7 [2]): 10.34% | Activity (MCF7 [3]): 9.7% | Activity (MCF7 [4]): 69.36% | ΔTm (DNA): 8.8 °C | Activity (MCF7 [5]): 6.23% | Activity (MCF7 [6]): 52.63% | Activity (MCF7 [7]): 32.52% | Activity (MCF7 [8]): 4.52% | Activity (MCF7 [9]): 14.71%

COc1cc2c(cc1OCCCCN1CCN(C(=O)c3nc(-c4ccccc4)n4ccccc34)CC1)N=C[C@@H]1CCCN1C2=O
IC50 (MCF7 [1]): 7.18 µM | Activity (MCF7 [2]): 17.03% | Activity (MCF7 [3]): 9.85% | Activity (MCF7 [4]): 63.74% | ΔTm (DNA): 8.9 °C | Activity (MCF7 [5]): 5.47% | Activity (MCF7 [6]): 48.87% | Activity (MCF7 [7]): 31.3% | Activity (MCF7 [8]): 2.8% | Activity (MCF7 [9]): 20.95%

COc1cc2c(cc1OCCCCCN1CCN(C(=O)c3nc(-c4ccccc4)n4ccccc34)CC1)N=C[C@@H]1CCCN1C2=O
IC50 (MCF7 [1]): 4.16 µM | Activity (MCF7 [2]): 9.84% | Activity (MCF7 [3]): 10% | Activity (MCF7 [4]): 51.6% | ΔTm (DNA): 9 °C | Activity (MCF7 [5]): 7.6% | Activity (MCF7 [6]): 49.16% | Activity (MCF7 [7]): 36.5% | Activity (MCF7 [8]): 4.49% | Activity (MCF7 [9]): 30.74%

COc1ccc(-c2nc(C(=O)N3CCN(CCCCCOc4cc5c(cc4OC)C(=O)N4CCC[C@H]4C=N5)CC3)c3ccccn23)cc1
IC50 (MCF7 [1]): 5.67 µM | Activity (MCF7 [2]): 10.06% | Activity (MCF7 [3]): 10.42% | Activity (MCF7 [4]): 53.22% | ΔTm (DNA): 9.9 °C | Activity (MCF7 [5]): 6.07% | Activity (MCF7 [6]): 52.76% | Activity (MCF7 [7]): 31.61% | Activity (MCF7 [8]): 5.57% | Activity (MCF7 [9]): 30.3%

COc1cc2c(cc1OCCCCCN1CCN(C(=O)c3nc(-c4ccc(C(F)(F)F)cc4)n4ccccc34)CC1)N=C[C@@H]1CCCN1C2=O
Activity (MCF7 [10]): Active | IC50 (MCF7 [1]): 3.16 µM | inhibition (MCF7 [11]): Active | inhibition (MCF7 [12]): Active | Activity (MCF7 [2]): 8.48% | Activity (MCF7 [3]): 6.9% | Activity (MCF7 [4]): 49.66% | ΔTm (DNA): 10.2 °C | Activity (MCF7 [13]): 80% | Activity (MCF7 [5]): 17.13% | Activity (MCF7 [14]): Active | Activity (MCF7 [6]): 44.41% | Activity (MCF7 [7]): 41.41% | Activity (MCF7 [15]): Active | Activity (MCF7 [8]): 5.7% | Activity (MCF7 [16]): Active | Activity (MCF7 [9]): 25.32%

O=C(O)c1nc(-c2ccc(C(F)(F)F)cc2)n2ccccc12
ΔTm (DNA): 0.3 °C

O=C(c1nc(-c2ccc(C(F)(F)F)cc2)n2ccccc12)N1CCNCC1
ΔTm (DNA): 2.5 °C

COc1ccc(-c2nc(C(=O)N3CCN(CCCCOc4cc5c(cc4OC)C(=O)N4CCC[C@H]4C=N5)CC3)c3ccccn23)cc1
IC50 (MCF7 [1]): 4.17 µM | Activity (MCF7 [2]): 9.89% | Activity (MCF7 [3]): 14.04% | Activity (MCF7 [4]): 59.03% | ΔTm (DNA): 9.9 °C | Activity (MCF7 [5]): 7.01% | Activity (MCF7 [6]): 51.08% | Activity (MCF7 [7]): 34.52% | Activity (MCF7 [8]): 4.51% | Activity (MCF7 [9]): 22.9%

COc1cc2c(cc1OCCCCN1CCN(C(=O)c3nc(-c4ccc(C(F)(F)F)cc4)n4ccccc34)CC1)N=C[C@@H]1CCCN1C2=O
Activity (MCF7 [10]): Active | IC50 (MCF7 [1]): 3.26 µM | inhibition (MCF7 [11]): Active | inhibition (MCF7 [12]): Active | Activity (MCF7 [2]): 12.14% | Activity (MCF7 [3]): 8.78% | Activity (MCF7 [4]): 57.32% | ΔTm (DNA): 10 °C | Activity (MCF7 [5]): 15.19% | Activity (MCF7 [14]): Active | Activity (MCF7 [6]): 42.94% | Activity (MCF7 [7]): 41.29% | Activity (MCF7 [15]): Active | Activity (MCF7 [8]): 3.64% | Activity (MCF7 [16]): Active | Activity (MCF7 [9]): 18.71%

COc1cc2c(cc1OCCCN1CCN(C(=O)c3nc(-c4ccccc4)n4ccccc34)CC1)N=C[C@@H]1CCCN1C2=O
IC50 (MCF7 [1]): 7.21 µM | Activity (MCF7 [2]): 11.86% | Activity (MCF7 [3]): 10.19% | Activity (MCF7 [4]): 54.44% | ΔTm (DNA): 8.9 °C | Activity (MCF7 [5]): 5.23% | Activity (MCF7 [6]): 55.54% | Activity (MCF7 [7]): 28.35% | Activity (MCF7 [8]): 4.26% | Activity (MCF7 [9]): 30.14%

COc1cc2c(cc1OCCCCCCN1CCN(C(=O)c3nc(-c4ccc(C(F)(F)F)cc4)n4ccccc34)CC1)N=C[C@@H]1CCCN1C2=O
IC50 (MCF7 [1]): 4.28 µM | Activity (MCF7 [2]): 9.33% | Activity (MCF7 [3]): 9.94% | Activity (MCF7 [4]): 52.13% | ΔTm (DNA): 8.7 °C | Activity (MCF7 [5]): 7.14% | Activity (MCF7 [6]): 52.92% | Activity (MCF7 [7]): 34.09% | Activity (MCF7 [8]): 3.66% | Activity (MCF7 [9]): 30.79%

COc1cc2c(cc1OCCCCCCN1CCN(C(=O)c3nc(-c4ccccc4)n4ccccc34)CC1)N=C[C@@H]1CCCN1C2=O
IC50 (MCF7 [1]): 3.74 µM | Activity (MCF7 [2]): 10.52% | Activity (MCF7 [3]): 16.52% | Activity (MCF7 [4]): 55.54% | ΔTm (DNA): 8 °C | Activity (MCF7 [5]): 7.79% | Activity (MCF7 [6]): 43.15% | Activity (MCF7 [7]): 39.25% | Activity (MCF7 [8]): 4.08% | Activity (MCF7 [9]): 20.15%

COc1ccc(-c2nc(C(=O)N3CCN(CCCCCCOc4cc5c(cc4OC)C(=O)N4CCC[C@H]4C=N5)CC3)c3ccccn23)cc1
IC50 (MCF7 [1]): 3.68 µM | Activity (MCF7 [2]): 13.2% | Activity (MCF7 [3]): 8.44% | Activity (MCF7 [4]): 54.67% | ΔTm (DNA): 8.9 °C | Activity (MCF7 [5]): 13.33% | Activity (MCF7 [6]): 41.06% | Activity (MCF7 [7]): 40.53% | Activity (MCF7 [8]): 5.39% | Activity (MCF7 [9]): 23.56%

COc1cc2c(cc1O)N=C[C@@H]1CCCN1C2=O
Activity (MCF7 [10]): Active | IC50 (MCF7 [1]): 5 µM | Activity (MCF7 [2]): 16.13% | Activity (MCF7 [3]): 13.76% | Activity (MCF7 [4]): 54.08% | ΔTm (DNA): 0.7 °C | Activity (MCF7 [5]): 5.33% | Activity (MCF7 [14]): Active | Activity (MCF7 [6]): 53.76% | Activity (MCF7 [7]): 27.28% | Activity (MCF7 [8]): 2.83% | Activity (MCF7 [16]): Active | Activity (MCF7 [9]): 26.83%

COc1ccc(-c2nc(C(=O)N3CCN(CCCOc4cc5c(cc4OC)C(=O)N4CCC[C@H]4C=N5)CC3)c3ccccn23)cc1
IC50 (MCF7 [1]): 6 µM | Activity (MCF7 [2]): 19.65% | Activity (MCF7 [3]): 13.81% | Activity (MCF7 [4]): 66.92% | ΔTm (DNA): 8.8 °C | Activity (MCF7 [5]): 6% | Activity (MCF7 [6]): 45.35% | Activity (MCF7 [7]): 31.44% | Activity (MCF7 [8]): 3.56% | Activity (MCF7 [9]): 13.27%
